These cell lines were tested with COC1=C(C=C(C=C1)C2=CC3=NC=CN3C(=N2)NC4=C(C=CC=N4)C(=O)N)OC [BAY61-3606] + O=C(c1cc(Cc2n[nH]c(=O)c3ccccc23)ccc1F)N1CCN(C(=O)C2CC2)CC1 [Olaparib] (partner 8 µM) (assay: relative viability (nuclei count vs DMSO), 5 days (fraction); higher = more cells survive). Conditions: first compound 0.02 µM.
Outline: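 Lung cancer cell lines were pin-tool dosed in 1536-well plates on the day after seeding, with either a lone drug or a fixed anchor-drug dose plus five library-drug doses (not always all listed) in √10 steps. Nuclei were counted on 4× images after 5 days. Relative viability is the ratio of treated-well to vehicle-well nuclei counts, with each value a median of duplicate plates.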

Cell Line | relative viability
NCI-H322M | 0.779
HCC-78 | 0.744
LXF-289 | 1.05
BEN | 1.2
HARA | 1.02
HCC-827 | 0.648
LOU-NH91 | 0.944
A-427 | 0.79
NCI-H647 | 0.729
PC-3 [JPC-3] | 1.25
NCI-H1755 | 0.908
NCI-H650 | 0.365
NCI-H3122 | 0.607
NCI-H441 | 0.561
NCI-H1395 | 0.485
201T | 0.833
NCI-H1975 | 0.858
HOP-62 | 0.476
NCI-H2405 | 0.941
NCI-H1355 | 0.778
NCI-H838 | 0.802
NCI-H1666 | 0.767
EPLC-272H | 0.962
NCI-H2347 | 0.575
NCI-H1915 | 0.253
NCI-H1437 | 0.634
NCI-H460 | 0.501
NCI-H1792 | 0.66
NCI-H2085 | 0.863
HCC-15 | 0.668

Same assay, conditions: first compound 0.06325 µM

Cell Line | relative viability
NCI-H358 | 0.601
NCI-H322M | 0.822
HCC-78 | 0.891
LXF-289 | 1.1
BEN | 0.865
HARA | 0.929
HCC-827 | 0.737
LOU-NH91 | 0.922
A-427 | 0.694
NCI-H647 | 0.743
PC-3 [JPC-3] | 1.16
NCI-H1755 | 0.883
NCI-H650 | 0.371
NCI-H3122 | 0.652
NCI-H441 | 0.629
NCI-H1395 | 0.426

Cell Line | relative viability
201T | 0.842
NCI-H1975 | 0.798
HOP-62 | 0.569
NCI-H2405 | 0.89
NCI-H1355 | 0.713
NCI-H838 | 0.847
NCI-H1666 | 0.827
EPLC-272H | 0.722
NCI-H2347 | 0.629
NCI-H1915 | 0.236
NCI-H1437 | 0.687
NCI-H460 | 0.464
NCI-H1792 | 0.463
NCI-H2085 | 0.868
HCC-15 | 0.685

Same assay, conditions: first compound 0.2 µM

Cell Line | relative viability
NCI-H358 | 0.751
NCI-H322M | 0.75
HCC-78 | 0.845
LXF-289 | 0.96
BEN | 1.16
HARA | 1.06
HCC-827 | 0.67
LOU-NH91 | 0.903
A-427 | 0.765
NCI-H647 | 0.574
PC-3 [JPC-3] | 1.17
NCI-H1755 | 0.852
NCI-H650 | 0.382
NCI-H3122 | 0.676
NCI-H441 | 0.511
NCI-H1395 | 0.467

Cell Line | relative viability
201T | 0.865
NCI-H1975 | 0.733
HOP-62 | 0.279
NCI-H2405 | 0.845
NCI-H1355 | 0.708
NCI-H838 | 0.751
NCI-H1666 | 0.748
EPLC-272H | 0.706
NCI-H2347 | 0.603
NCI-H1915 | 0.254
NCI-H1437 | 0.607
NCI-H460 | 0.393
NCI-H1792 | 0.294
NCI-H2085 | 0.726
HCC-15 | 0.729

Same assay, conditions: first compound 0.6325 µM

Cell Line | relative viability
NCI-H358 | 0.573
NCI-H322M | 0.749
HCC-78 | 0.966
LXF-289 | 1.04
BEN | 1.29
HARA | 0.845
HCC-827 | 0.606
LOU-NH91 | 0.944
A-427 | 0.777
NCI-H647 | 0.432
PC-3 [JPC-3] | 1.17
NCI-H1755 | 0.911
NCI-H650 | 0.395
NCI-H3122 | 0.636
NCI-H441 | 0.473
NCI-H1395 | 0.492

Cell Line | relative viability
201T | 0.838
NCI-H1975 | 0.707
HOP-62 | 0.505
NCI-H2405 | 0.907
NCI-H1355 | 0.762
NCI-H838 | 0.729
NCI-H1666 | 0.754
EPLC-272H | 0.709
NCI-H2347 | 0.597
NCI-H1915 | 0.247
NCI-H1437 | 0.621
NCI-H460 | 0.444
NCI-H1792 | 0.286
NCI-H2085 | 0.843
HCC-15 | 0.719

Same assay, conditions: first compound 2 µM

Cell Line | relative viability
NCI-H358 | 0.449
NCI-H322M | 0.724
HCC-78 | 0.838
LXF-289 | 0.963
BEN | 0.972
HARA | 0.619
HCC-827 | 0.624
LOU-NH91 | 0.728
A-427 | 0.715
NCI-H647 | 0.237
PC-3 [JPC-3] | 1.06
NCI-H1755 | 0.789
NCI-H650 | 0.32
NCI-H3122 | 0.57
NCI-H441 | 0.32
NCI-H1395 | 0.438

Cell Line | relative viability
201T | 0.824
NCI-H1975 | 0.516
HOP-62 | 0.376
NCI-H2405 | 0.695
NCI-H1355 | 0.641
NCI-H838 | 0.571
NCI-H1666 | 0.724
EPLC-272H | 0.323
NCI-H2347 | 0.559
NCI-H1915 | 0.181
NCI-H1437 | 0.555
NCI-H460 | 0.457
NCI-H1792 | 0.282
NCI-H2085 | 0.698
HCC-15 | 0.655

— the supplement of paper PMC10307832
